Measurements published in paper PMC5520944 (Cell Death & Disease, 2017).
Read-outs that look alike come from different tables or passages of the source.

How the values were obtained:
Assay in all cases: cells
MV4-11 = test system: MV4-11; set-up: species or system Jurkat FADD-/-, HT-29, MV4-11 or Molm13; protection from induced necroptosis, cell death by PI staining and flow cytometry; conditions: Homo sapiens, BV6 + zVAD, inhibition of induced cell death
Procedure: (§1) Figure 2 Sorafenib inhibits TNF-induced RIPK1-dependent cell death in both murine and human cell lines and rescues AML cells from Smac mimetic-induced necroptosis. […] (c,d) HT-29 and Jurkat FADD−/− cells were pretreated for 1 h with DMSO, Nec-1 or Sorafenib (concentrations as indicated) and stimulated for 6 h with 30 ng/ml hTNF, 1 μM BV6 and 30 μM zVAD (HT-29) or stimulated for 10 h with 100 ng/ml hTNF (Jurkat FADD−/−). (a-d) Data were normalized to DMSO-treated control cells and represent the mean value±S.E.M. of three independent experiments. Toxic concentrations were removed from the analysis. L929sAhFas and MEF cells were stained with Hoechst and PI and percentage PI-positive nuclei was determined using high-content image analysis (BD pathway Bioimager). For HT-29 and Jurkat FADD−/− cells, cell death was determined by PI staining and flow cytometry. […] Cell death in AML cells was determined by PI staining and flow cytometry. Mean and S.D. of three independent experiments performed in triplicate are shown Supplementary materials and methods Immunoblotting. After treatments, cells were washed twice with PBS and lysed with Laemmli buffer (2x) directly or with NP-40 lysis buffer (150 mM NaCl, 1% NP-40, 10% glycerol, 10 mM Tris-HCl pH 8) supplemented with EDTA-free protease inhibitor cocktail tablets (Roche Diagnostics, Basel, Switzerland, #11873580001) and phosphatase inhibitor cocktail tablets (Roche Diagnostics, #04906837001). After lysis with NP-40 lysis buffer, lysates were kept 10 minutes on ice and centrifugated in a microcentrifuge (10 min, 13.000 rpm, 4°C). Supernatant was used for SDS-PAGE and immunoblotting. FACS analysis. FACS analysis was used to measure dying HT-29, Jurkat FADD-/- and AML cells. Treated HT-29 cells were harvested, washed with PBS and incubated with Annexin V binding buffer (BD Biosciences, 556454) containing 7-AAD and Annexin V-FITC for 15 min according to the manufacturer’s protocol. FACSCalibur^TM Flow Cytometer (BD Biosciences) and CellQuest Pro software were used to perform experiments and analyze data respectively.

Molm13 = test system: Molm13; set-up: species or system Jurkat FADD-/-, HT-29, MV4-11 or Molm13; protection from induced necroptosis, cell death by PI staining and flow cytometry; conditions: Homo sapiens, MOLM-13; BV6 + zVAD; inhibition of induced cell death
Procedure: as §1

MEF = test system: MEF; set-up: species or system L929sAhFas or MEF; protection from TNF-induced cell death, percentage PI-positive nuclei by high-content imaging; conditions: Mus musculus
Procedure: (c,d) HT-29 and Jurkat FADD−/− cells were pretreated for 1 h with DMSO, Nec-1 or Sorafenib (concentrations as indicated) and stimulated for 6 h with 30 ng/ml hTNF, 1 μM BV6 and 30 μM zVAD (HT-29) or stimulated for 10 h with 100 ng/ml hTNF (Jurkat FADD−/−). (a-d) Data were normalized to DMSO-treated control cells and represent the mean value±S.E.M. of three independent experiments. Toxic concentrations were removed from the analysis. L929sAhFas and MEF cells were stained with Hoechst and PI and percentage PI-positive nuclei was determined using high-content image analysis (BD pathway Bioimager). For HT-29 and Jurkat FADD−/− cells, cell death was determined by PI staining and flow cytometry. […] Cell death in AML cells was determined by PI staining and flow cytometry. […] Smac mimetic BV6[34] instead of TAK1i was used as a sensitizer for testing of mouse embryonic fibroblasts (MEF) and human cell lines. […] Since Sorafenib is used to treat AML,[27] we also included two AML cell lines to investigate whether it alters the sensitivity of these cells to necroptotic stimuli (BV6 in the presence of zVAD-fmk).[34]

L929sAhFas [1] = test system: L929sAhFas; set-up: species or system L929sAhFas or MEF; protection from TNF-induced cell death, percentage PI-positive nuclei by high-content imaging; conditions: mTNF; inhibition of induced cell death
Procedure: Figure 2 Sorafenib inhibits TNF-induced RIPK1-dependent cell death in both murine and human cell lines and rescues AML cells from Smac mimetic-induced necroptosis. […] (c,d) HT-29 and Jurkat FADD−/− cells were pretreated for 1 h with DMSO, Nec-1 or Sorafenib (concentrations as indicated) and stimulated for 6 h with 30 ng/ml hTNF, 1 μM BV6 and 30 μM zVAD (HT-29) or stimulated for 10 h with 100 ng/ml hTNF (Jurkat FADD−/−). (a-d) Data were normalized to DMSO-treated control cells and represent the mean value±S.E.M. of three independent experiments. Toxic concentrations were removed from the analysis. L929sAhFas and MEF cells were stained with Hoechst and PI and percentage PI-positive nuclei was determined using high-content image analysis (BD pathway Bioimager). For HT-29 and Jurkat FADD−/− cells, cell death was determined by PI staining and flow cytometry. […] Cell death in AML cells was determined by PI staining and flow cytometry. Mean and S.D. of three independent experiments performed in triplicate are shown To confirm the inhibition of TNF-induced necroptosis by Sorafenib, we tested a panel of murine (L929sAhFas and MEF) and human cell lines (HT-29, Jurkat FADD^-/-, and two AML cell lines MV4-11 and Molm13). Smac mimetic BV6[34] instead of TAK1i was used as a sensitizer for testing of mouse embryonic fibroblasts (MEF) and human cell lines. […]

L929sAhFas [2] = test system: L929sAhFas; set-up: high-content necroptosis screen, percentage PI-positive nuclei as percent of DMSO plus stimulus control; conditions: mTNF-induced cell death, validation screen; read-out: Validation screen IC50 (µM) (TNF)
Excerpt: To identify novel inhibitors or regulators of necroptosis, 500 small compounds from libraries targeting autophagy, kinases, phosphatases, proteases and redox balance were screened for their ability to block TNF-induced necroptosis in murine L929sAhFas cells. Three conditions were used to induce necroptosis in L929 cells: TNF alone, TNF+TAK1 inhibitor (TAK1i) and TNF+zVAD-fmk, a pan-caspase inhibitor. Inhibition of TAK1 or caspases sensitizes to necroptosis.[13], [32] Necroptosis, measured as the percentage of PI-positive nuclei normalized to the plate-specific DMSO control, was determined for each compound (Supplementary Figure 1A). Z’ values for the TNF- and TNF+TAK1i-induced cell death assay were 0.498 and 0.919, respectively (Supplementary Figures 2A and B), indicating good assay performance. Sorafenib was identified as an effective inhibitor of both TNF- and TNF+TAK1i-induced necroptosis (Figure 1a). […] In an independent screening with 437 FDA-approved drugs and TNF+zVAD-fmk as necroptosis trigger in L929 cells (Supplementary Figure 1B), Sorafenib was also shown to be a potent inhibitor (Figure 1b). […] After compound treatment, L929sAhFas (a) or L929 (b) cells were stimulated with mTNF (T), mTNF+Tak1i (TiT) or mTNF+zVAD (zVT) (Supplementary Figure 1A and B). (a) Cell death percentage (% PI-positive nuclei) or cell loss was calculated as percent of control (DMSO+stimulus). Green points marked by the green dotted line represent a selection of kinase inhibitors from the screening on L929sAhFas cells (Supplementary Table 1), that are only slightly protective in the TNF-stimulated condition. (b) Cell loss (luminescence-based readout for ATP) was calculated as percent of control (DMSO+stimulus). […] In stimulated conditions, % PI-positive nuclei was determined as % of DMSO control. Data represent mean values±S.E.M. of two independent experiments. Cells were stained with Hoechst and PI and percentage PI-positive nuclei was determined using high-content image analysis (BD pathway Bioimager). (d) L929sAhFas cells were treated with Sorafenib (concentration as indicated) for 24 h. Then, stimulus was removed, 50 cells/condition seeded and colonies counted with crystal violet staining after 10 days incubation. Quantification was performed using ImageJ. n=2, a representative experiment is shown Legends supplementary figures Supplementary Figure S1. Schemes of workflow screening assays in L929 cell lines. (A) Scheme of the workflow of a high-content screening assay on L929sAhFas cells using mTNF (T) and mTNF+Tak1i ((5Z)-7-Oxozeaenol) (TiT) to induce necroptotic cell death. Nec-1 and zVAD-fmk were used as protective and sensitizing benchmarks, respectively, on all plates. (B) Scheme of the workflow of a CellTiter-Glo luminescent cell viability screening assay on L929 cells using mTNF+zVAD (zVT) to induce necroptotic cell death. Supplementary Figure S2. Z’ calculation for cell death screening assays in L929 cells. (A) Z’ calculation for cell death screening assay (Fig. 1A) in mTNF-stimulated L929sAhFas cells. (B) Z’ calculation for cell death screening assay (Fig. 1A) in L929sAhFas cells stimulated with mTNF + Taki.

L929sAhFas [3] = test system: L929sAhFas; set-up: high-content necroptosis screen, percentage PI-positive nuclei as percent of DMSO plus stimulus control
Excerpt: To identify novel inhibitors or regulators of necroptosis, 500 small compounds from libraries targeting autophagy, kinases, phosphatases, proteases and redox balance were screened for their ability to block TNF-induced necroptosis in murine L929sAhFas cells. Three conditions were used to induce necroptosis in L929 cells: TNF alone, TNF+TAK1 inhibitor (TAK1i) and TNF+zVAD-fmk, a pan-caspase inhibitor. Inhibition of TAK1 or caspases sensitizes to necroptosis.[13], [32] Necroptosis, measured as the percentage of PI-positive nuclei normalized to the plate-specific DMSO control, was determined for each compound (Supplementary Figure 1A). […] After compound treatment, L929sAhFas (a) or L929 (b) cells were stimulated with mTNF (T), mTNF+Tak1i (TiT) or mTNF+zVAD (zVT) (Supplementary Figure 1A and B). (a) Cell death percentage (% PI-positive nuclei) or cell loss was calculated as percent of control (DMSO+stimulus). […] (b) Cell loss (luminescence-based readout for ATP) was calculated as percent of control (DMSO+stimulus). […] In stimulated conditions, % PI-positive nuclei was determined as % of DMSO control. Data represent mean values±S.E.M. of two independent experiments. Cells were stained with Hoechst and PI and percentage PI-positive nuclei was determined using high-content image analysis (BD pathway Bioimager). (d) L929sAhFas cells were treated with Sorafenib (concentration as indicated) for 24 h. Then, stimulus was removed, 50 cells/condition seeded and colonies counted with crystal violet staining after 10 days incubation. […] Schemes of workflow screening assays in L929 cell lines. (A) Scheme of the workflow of a high-content screening assay on L929sAhFas cells using mTNF (T) and mTNF+Tak1i ((5Z)-7-Oxozeaenol) (TiT) to induce necroptotic cell death. Nec-1 and zVAD-fmk were used as protective and sensitizing benchmarks, respectively, on all plates. (B) Scheme of the workflow of a CellTiter-Glo luminescent cell viability screening assay on L929 cells using mTNF+zVAD (zVT) to induce necroptotic cell death. Supplementary Figure S2. Z’ calculation for cell death screening assays in L929 cells. (A) Z’ calculation for cell death screening assay (Fig. 1A) in mTNF-stimulated L929sAhFas cells. (B) Z’ calculation for cell death screening assay (Fig. 1A) in L929sAhFas cells stimulated with mTNF + Taki.

[4] = read-out: cell death TNF/Taki (POC)

SMILES	IC50 (MV4-11) [nM]	IC50 (Molm13) [nM]	IC50 (MEF; mTNF + BV6 + zVAD, inhibition of induced cell death) [nM]	IC50 (MEF; mTNF + BV6, inhibition of induced cell death) [nM]	IC50 (L929sAhFas [1]) [nM]	IC50 (L929sAhFas [2]) [µM]	activity at 10 µM (L929sAhFas [3]; read-out: cell death TNF (POC)) [%]	activity at 10 µM (L929sAhFas [3]; [4]) [%]
CN1C(=O)NC(Cc2c[nH]c3c(Cl)cccc23)C1=O (centres unmarked) [Nec-1s]	150 ± 10	280 ± 170	630 ± 250	380 ± 50	240 ± 120			
N#C/C(=C\c1ccc(O)c(O)c1)C(=O)NCc1ccccc1 [AG-490]						87.3	74.2	97.3
COc1cc2ncc(-c3ccccc3)nc2cc1OC [AG-1296]						33.2	77.6	93.6
N#C/C(=C\c1ccc(O)c(O)c1)C(=O)Nc1ccccc1 [AG-494]						32.3	58.6	95.8
